≈ marks a conversion by molar mass, not a printed value. Where two headings read alike, the source gives them in different places. Some results are limits rather than exact numbers.

What all share (assay): MIC determination
What all share (type): cell-based

Experiment [1] concerns S. pneumoniae MMX 3028 cErmB. The note with it: Streptococcus pneumoniae, MMX3028CERMB.
For experiment [2], the system named is S. aureus MP-549 msr(a) USA 300. Conditions: Staphylococcus aureus, USA300, S. aureus MP-549 msr(a) USA 300.
The next experiment relates to K. pneumoniae ATCC 10031. The note with it: Klebsiella pneumoniae, ATCC10031.
Another experiment relates to S. pyogenes ATCC 19615. The note with it: Streptococcus pyogenes, ATCC19615; S. pyogenes ATCC 19615; read-out: MIC.
The next experiment has as its system S. aureus MMX 3035 cErmA. The note with it: Staphylococcus aureus, MMX3035CERMA; S. aureus MMX 3035 cErmA; read-out: MIC.
The test system of a further experiment is H. influenzae ATCC 49247. The note with it: Haemophilus influenzae, ATCC49247.
The test system of the next experiment is S. pneumoniae ATCC 49619. The note with it: Streptococcus pneumoniae, ATCC49619; S. pneumoniae ATCC 49619; read-out: MIC.
Experiment [3] deals with S. pneumoniae MMX 3031 cMefA. Conditions: Streptococcus pneumoniae, MMX3031CMEFA.
For another experiment, the system named is E. coli ATCC 25922. Conditions: Escherichia coli, ATCC25922, E. coli ATCC 25922; read-out: MIC.
For a further experiment, the system named is S. aureus ATCC 29213. The note with it: Staphylococcus aureus, ATCC29213, S. aureus ATCC 29213; read-out: MIC.
The next experiment relates to S. aureus BAA 977 iErmA. The note with it: Staphylococcus aureus, BAA977.
For experiment [4], the system named is E. coli MP-74 LptD mutant. The note with it: Escherichia coli.
For experiment [5], the system named is S. pyogenes MMX 946 Macrolide-Resistant. Conditions: Streptococcus pyogenes, read-out: MIC.
A further experiment deals with E. coli MP-9 ΔTolC. The note with it: Escherichia coli.
Experiment [6] concerns E. faecalis MMX 847 Macrolide-Resistant. The note with it: Enterococcus faecalis, read-out: MIC.
A further experiment deals with E. faecalis ATCC 29212. The note with it: Enterococcus faecalis, ATCC29212, read-out: MIC.
The mark [7] stands for this setting: S. pneumoniae MMX 3028 cErmB, read-out: MIC.
The mark [8] stands for this setting: K. pneumoniae ATCC 10031, read-out: MIC.
[9] abbreviates: H. influenzae ATCC 49247, read-out: MIC.
Where [10] appears, read: S. pyogenes MMX 946 Macrolide-Resistant (MacRes).
Setting [11] is: E. faecalis MMX 847 Macrolide-Resistant (MacRes).

For the molecule `CSC1O[C@H]([C@H](NC(=O)[C@H]2NC[C@@H]3C[C@@H](CCc4cccc(F)c4)CCO[C@H]32)[C@H](C)Cl)C(O)[C@@H](O)[C@H]1O` (some centres unmarked) [FSA-510022], the MIC was 4 µg/mL (≈ 7.13 µM) in experiment [1] (setting [7]); 0.12 µg/mL (≈ 0.214 µM) in experiment [2]; 2 µg/mL (≈ 3.56 µM) in the experiment on K. pneumoniae ATCC 10031 (setting [8]); not above 0.06 µg/mL in the experiment on S. pyogenes ATCC 19615; 2 µg/mL (≈ 3.56 µM) in the experiment on S. aureus MMX 3035 cErmA; 1 µg/mL (≈ 1.78 µM) in the experiment on H. influenzae ATCC 49247 (setting [9]). For the same molecule, the MIC with S. pneumoniae ATCC 49619 was not above 0.06 µg/mL; in experiment [3], not above 0.06 µg/mL; with E. coli ATCC 25922, 32 µg/mL (≈ 57 µM); in the experiment on S. aureus ATCC 29213, 0.12 µg/mL (≈ 0.214 µM); against S. aureus BAA 977 iErmA, 0.12 µg/mL (≈ 0.214 µM); in experiment [4] it was 4 µg/mL (≈ 7.13 µM). The MIC in experiment [5] (S. pyogenes MMX 946 MacRes) is 0.5 µg/mL (≈ 0.891 µM); in the experiment on E. coli MP-9 ΔTolC it was 4 µg/mL (≈ 7.13 µM); in experiment [6] (E. faecalis MMX 847 MacRes), 2 µg/mL (≈ 3.56 µM); with E. faecalis ATCC 29212, 0.25 µg/mL (≈ 0.446 µM).

As for `CSC1O[C@H]([C@H](NC(=O)[C@H]2NC[C@@H]3C[C@@H](c4ccc(F)cc4F)CCO[C@H]32)[C@H](C)Cl)C(O)[C@@H](O)[C@H]1O` (some centres unmarked) [FSA-511078], the MIC is 4 µg/mL (≈ 7.26 µM) in [1] (setting [7]); 0.12 µg/mL (≈ 0.218 µM) in experiment [2]; 8 µg/mL (≈ 14.5 µM) with K. pneumoniae ATCC 10031 (setting [8]); not above 0.06 µg/mL with S. pyogenes ATCC 19615; more than 64 µg/mL with S. aureus MMX 3035 cErmA; 16 µg/mL (≈ 29 µM) with H. influenzae ATCC 49247 (setting [9]). The MIC in the experiment on S. pneumoniae ATCC 49619 was not above 0.06 µg/mL; in experiment [3] it was not above 0.06 µg/mL; with E. coli ATCC 25922 it was more than 64 µg/mL; in the experiment with S. aureus ATCC 29213, 0.25 µg/mL (≈ 0.454 µM); against S. aureus BAA 977 iErmA, 0.25 µg/mL (≈ 0.454 µM); in experiment [4] it was 8 µg/mL (≈ 14.5 µM). For the same molecule, the MIC in experiment [5] (S. pyogenes MMX 946 MacRes) was 16 µg/mL (≈ 29 µM); against E. coli MP-9 ΔTolC, 2 µg/mL (≈ 3.63 µM); in experiment [6] (E. faecalis MMX 847 MacRes), 64 µg/mL (≈ 116 µM); in the experiment with E. faecalis ATCC 29212, 0.25 µg/mL (≈ 0.454 µM).

Take `CSC1O[C@H]([C@H](NC(=O)[C@H]2NC[C@@H]3C=C(c4ccccc4F)CCO[C@@H]23)[C@H](C)Cl)C(O)[C@@H](O)[C@H]1O` (some centres unmarked) [FSA-511073]: the MIC in experiment [1] is 64 µg/mL (≈ 121 µM); in experiment [2], 1 µg/mL (≈ 1.88 µM); against K. pneumoniae ATCC 10031, 64 µg/mL (≈ 121 µM); with S. pyogenes ATCC 19615 it was 0.25 µg/mL (≈ 0.471 µM); with S. aureus MMX 3035 cErmA it was more than 64 µg/mL; in the experiment on H. influenzae ATCC 49247 (setting [9]), more than 64 µg/mL. Besides, the MIC with S. pneumoniae ATCC 49619 was 0.12 µg/mL (≈ 0.226 µM); in experiment [3] it was 0.12 µg/mL (≈ 0.226 µM); with E. coli ATCC 25922, more than 64 µg/mL; in the experiment on S. aureus ATCC 29213 it was 1 µg/mL (≈ 1.88 µM); against S. aureus BAA 977 iErmA, 1 µg/mL (≈ 1.88 µM); in experiment [4], 64 µg/mL (≈ 121 µM). The MIC in experiment [5] (setting [10]) was more than 64 µg/mL; with E. coli MP-9 ΔTolC, 64 µg/mL (≈ 121 µM); in experiment [6] (setting [11]) it was more than 64 µg/mL; with E. faecalis ATCC 29212, 4 µg/mL (≈ 7.53 µM).

As for `CSC1O[C@H]([C@H](NC(=O)[C@H]2NC[C@@H]3C[C@@H](c4cc(F)cc(F)c4)CCO[C@H]32)[C@H](C)Cl)C(O)[C@@H](O)[C@H]1O` (some centres unmarked) [FSA-511080], the MIC in [1] (setting [7]) was 8 µg/mL (≈ 14.5 µM); in experiment [2] it was 0.25 µg/mL (≈ 0.454 µM); with K. pneumoniae ATCC 10031, 16 µg/mL (≈ 29 µM); with S. pyogenes ATCC 19615, not above 0.06 µg/mL; with S. aureus MMX 3035 cErmA it was more than 64 µg/mL; against H. influenzae ATCC 49247, 16 µg/mL (≈ 29 µM). Besides, the MIC in the experiment with S. pneumoniae ATCC 49619 is not above 0.06 µg/mL; in experiment [3], not above 0.06 µg/mL; in the experiment with E. coli ATCC 25922 it was more than 64 µg/mL; with S. aureus ATCC 29213 it was 0.12 µg/mL (≈ 0.218 µM); against S. aureus BAA 977 iErmA, 0.25 µg/mL (≈ 0.454 µM); in experiment [4], 16 µg/mL (≈ 29 µM). The MIC in experiment [5] (S. pyogenes MMX 946 MacRes) was 32 µg/mL (≈ 58.1 µM); against E. coli MP-9 ΔTolC, 4 µg/mL (≈ 7.26 µM); in experiment [6] (E. faecalis MMX 847 MacRes), more than 64 µg/mL; with E. faecalis ATCC 29212 it was 0.5 µg/mL (≈ 0.907 µM).

As to `CSC1O[C@H]([C@H](NC(=O)[C@H]2NC[C@@H]3C=C(c4cc(F)cc(F)c4)CCO[C@@H]23)[C@H](C)Cl)C(O)[C@@H](O)[C@H]1O` (some centres unmarked) [FSA-511074], the MIC is 64 µg/mL (≈ 117 µM) in [1]; 1 µg/mL (≈ 1.82 µM) in [2]; 64 µg/mL (≈ 117 µM) against K. pneumoniae ATCC 10031; 0.5 µg/mL (≈ 0.911 µM) in the experiment with S. pyogenes ATCC 19615; more than 64 µg/mL in the experiment on S. aureus MMX 3035 cErmA; more than 64 µg/mL in the experiment with H. influenzae ATCC 49247 (setting [9]). Also, the MIC in the experiment on S. pneumoniae ATCC 49619 was 0.25 µg/mL (≈ 0.455 µM); in experiment [3], 0.25 µg/mL (≈ 0.455 µM); in the experiment on E. coli ATCC 25922, more than 64 µg/mL; with S. aureus ATCC 29213 it was 2 µg/mL (≈ 3.64 µM); in the experiment on S. aureus BAA 977 iErmA, 2 µg/mL (≈ 3.64 µM); in [4], 64 µg/mL (≈ 117 µM). Besides, the MIC in [5] (setting [10]) was more than 64 µg/mL; against E. coli MP-9 ΔTolC, 64 µg/mL (≈ 117 µM); in experiment [6] (setting [11]) it was more than 64 µg/mL; with E. faecalis ATCC 29212, 4 µg/mL (≈ 7.29 µM).
